Assay results reported in US20120142767A1, “PINE PCO ESTER COSMETIC COMPOSITION” (ACTION PIN, priority 2009, published 2012).
Where “and” joins values, the source holds several entries; their conditions need not be identical. Equal entries are not always repeated.

Columns and labels:
[1] = tested on: reconstructed human epidermis; test: Cytotoxicity (MTT) on reconstructed human epidermis irradiated by UVBs; format: cell-based; details: for AU (MTT): 3 epidermises and mean ± SD
Description: A human epidermis is reconstructed in vitro in culture inserts. A paper filter disc on which the substance to be tested (preventive treatment) is deposited on the “stratum corneum”. After 24 hours, it is irradiated by UVBs and then the substance to be tested (curative treatment) is again applied. a study of cytoxicity (MTT), The keratinocytes sites are sown at a density of 100×10^3 cells/cm^2 in inserts, the bottom of which consists of a polycarbonate membrane (porosity 0.4 μm-1 cm^2). […] 3 series of substance to be tested (5, 50 and 500 μg/mL) each consisting of 3 epidermises (to be irradiated). Next, the paper filter disks are carefully withdrawn and all the series are irradiated with UVBs (0.6 J/cm^2) (Spectroline model X-15N/F, λ=312 nm) except for the series corresponding to the absolute negative control and to the solvent control. The curative treatment is then applied as described above for the preventive treatment over a period of 24 hours, except for the positive control series 2 (indomethacin). The MTT test is carried out according to the conditions described in the publications: […]. and Berg K. Re-examination and further development of a precise and rapid dye method for measuring cell growth/cell kill. J. Immunol. Methods. 1989, 119, 203; and Mosmann T., Rapid colorimetric assay for cellular growth and survival: Application to proliferation and cytotoxic assays, J. Immunol. Methods. 1983, 65, 55-63. At the end of the selected incubation time, the Whatman paper disk is carefully picked up, the <<stratum corneum>> is rinsed and the porous membrane bearing the epidermal layer is detached from the insert with a bistoury. The culture medium are used for assaying IL-1α and MDA. […] For each layer, 200 μL of the obtained solution are pipeted into an 96 well plate for carrying out spectrometry with a plate reader (FL600-BIO-TEK) at λ=540 nm.

IL-1α = test: Assay of IL-1α in the culture medium of UVB-irradiated reconstructed human epidermis; format: cell-based; details: indomethacin 3 hours before irradiation, not statistically significant
Description: A human epidermis is reconstructed in vitro in culture inserts. A paper filter disc on which the substance to be tested (preventive treatment) is deposited on the “stratum corneum”. After 24 hours, it is irradiated by UVBs and then the substance to be tested (curative treatment) is again applied. an assay of IL-1α, a pro-inflammatory mediator in the culture medium, […] 3 series of substance to be tested (5, 50 and 500 μg/mL) each consisting of 3 epidermises (to be irradiated). Next, the paper filter disks are carefully withdrawn and all the series are irradiated with UVBs (0.6 J/cm^2) (Spectroline model X-15N/F, λ=312 nm) except for the series corresponding to the absolute negative control and to the solvent control. The curative treatment is then applied as described above for the preventive treatment over a period of 24 hours, except for the positive control series 2 (indomethacin). The assay of IL-1α is carried out in the sampled culture media (n=3), diluted to 1/10th and to 1/20th according to the procedure described in the assay kit.

normal human fibroblasts [2] = test: Synthesis of collagen by human fibroblasts (Sircol assay); format: cell-based; parameters: stimulation of collagen at the cell matrix: dose or concentration left out as unconfirmed
Description: The goal of this study is to evaluate the effect of the test element on the synthesis of collagen after 24-hour contact with a monolayer of normal human fibroblasts.
The cells used are fibroblasts from a human child skin tissue (child) on passage 2.
The cells are sown with 50,000 cells/cm^2. After 24 hours of culture, 37° C., 5% CO2, they are incubated with the product under investigation and the reference element for 24 hours in a 1% FCS medium.
The collagen is assayed in the extra cellular matrix and in the culture medium by means of the assay box Sircol, Biocolor Ltd, Ireland, according to the procedure described in the box.
The assay is carried out with the red colouring agent Sirius (Direct Red 80) which has specific affinity for the trip helix structure (Gly-X-Y)n of native collagen.
The absorbance of the dye-collagen complex is read out with the spectrophotometer at 540 nm.
A standard curve is produced between 0 and 50 μg/mL of collagen of type I.
The collagen concentration is expressed in pg of collagen /ml/U MTT in the extra cellular matrix and in the culture medium.

normal human fibroblasts [3] = test: Cytotoxic activity on a monolayer of human fibroblasts (MTT, 24 hours); details: positive control (SDS), concentration not given
Description: After applying the product on the cells for 24 hours, cell viability is evaluated by measuring the activity of the mitochondrial succinate dehydrogenase of living cells. This enzyme transforms MTT (3(4,5-diméthylthiazol-2-yl)-2,5-diphenyltetrazolium bromide) into blue formazan crystals. After dissolution of these crystals, a spectrophotometric read-out is performed. The measured absorbancies are proportional to the number of living cells.
The cells used are fibroblast from human skin tissue (child foreskin) in passage 1.
Six dilutions of each sample, prepared in an culture medium with 0.005% of between 60 and 0.05% of cotton oil, are tested in an amount of 5 test wells per concentration. The reference elements are tested on 5 wells.
The absorbance is measured at 540 nm. The results are expressed as a mortality percentage compared with the negative control.

MDA (malonaldehyde) = test: Assay of MDA (lipid peroxidation) in the culture medium of UVB-irradiated reconstructed human epidermis; format: cell-based; details: for MDA / MDA (μM/AU MTT): vitamin E 200 μg/mL + UVB, 3 epidermises and mean ± SD
Description: A human epidermis is reconstructed in vitro in culture inserts. A paper filter disc on which the substance to be tested (preventive treatment) is deposited on the “stratum corneum”. After 24 hours, it is irradiated by UVBs and then the substance to be tested (curative treatment) is again applied. an assay of MDA (malonaldehyde) (a terminal product formed during the lipid peroxidation process induced by the formation of radical species, or species activated by oxygen). […] 3 series of substance to be tested (5, 50 and 500 μg/mL) each consisting of 3 epidermises (to be irradiated). Next, the paper filter disks are carefully withdrawn and all the series are irradiated with UVBs (0.6 J/cm^2) (Spectroline model X-15N/F, λ=312 nm) except for the series corresponding to the absolute negative control and to the solvent control. The curative treatment is then applied as described above for the preventive treatment over a period of 24 hours, except for the positive control series 2 (indomethacin). […] dilutions are carried out between 0.1 and 10 μM (0.1-1-2.5-5 and 10 μM). 500 μL of culture medium (or 500 μL of a standard range) are energetically mixed in a vortex mixer, with 1 mL of a <<TCA, TBA, HCl>> solution ([…] of TCA trichloroacetic acid, 0.375% (w/v) of TBA (2-thiobarbituric acid), 0.25 M of HCl) (heated for 15 minutes at 100° C. in order to dissolve the TBA, and then left to cool). The mixture is incubated for 15 minutes at 100° C. and the OD is measured at λ=535 nm against a blank formed with the <<TCA, TBA, HCl>> solution.

## COc1ccc2c(c1)c(CC(=O)O)c(C)n2C(=O)c1ccc(Cl)cc1 [Indomethacin, indomethacin]
[1]; indomethacin 10 μg/mL, 3 hours before UVB
  AU (MTT): 0.214 AU and 0.288 AU and 0.232 AU
[1]; indomethacin for 3 hours before irradiation
  protective effect as regards cytotoxicity: no protective effect
IL-1α
  inhibition of synthesis and secretion of IL-1α in the culture medium: −20%

## TGF β1: positive control of the collagen synthesis test
Normal human fibroblasts [2]; TGF β1
  stimulation of collagen at the cell matrix: 88%
Normal human fibroblasts [2]; TGF β1 (100 ng/ml)
  Assay of collagen, Cell matrix: 9.74 μg/wells
  Assay of collagen, Culture medium: 11.36 μg/wells
  Assay of collagen, TOTAL: 21.09 μg/wells
  Collagen ratio, Cell matrix: 10.42 μg/wells/U MTT
  Collagen ratio, Culture medium: 12.15 μg/wells/U MTT
  Collagen ratio, TOTAL: 22.57 μg/wells/U MTT
  Stimulation of collagen excreted into the culture medium: 12%
  Stimulation of collagen produced in the cell matrix: 88%
  Stimulation of the synthesis of total collagen: 38%
Normal human fibroblasts [2]; TGF β1 at 10 μg/mL
  stimulation of total synthesis of collagen: 38%

## CCCCCCCCCCCCOS(=O)(=O)[O-].[Na+] [Positive control, SDS]
Normal human fibroblasts [3]
  UA MTT: 0.065 UA

## vitamin E
[1]
  cytotoxic effect: 13%
[1]; vitamin E 200 μg/mL + UVB
  AU (MTT): 0.246 AU and 0.369 AU and 0.356 AU
MDA (malonaldehyde)
  MDA: 0.422 µM and 0.423 µM and 0.484 µM
  MDA (μM/AU MTT): 1.715 μM/AU MTT and 1.147 μM/AU MTT and 1.359 μM/AU MTT
MDA (malonaldehyde); mean ± SD of three epidermises
  MDA: 0.443 ± 0.035 µM
  MDA (μM/AU MTT): 1.407 ± 0.287 μM/AU MTT
MDA (malonaldehyde); vitamin E before and after irradiation, with respect to the non-irradiated absolute negative control, P<0.05
  increase in the MDA level: 58%
